These results are taken from patent US11912703B2, “6-azaindole compounds” (BRISTOL-MYERS SQUIBB COMPANY, priority 2017, dated 2024).

For orientation: IC50 means the concentration at which inhibition is half-maximal.

The target of test [1] is human TLR8 (Homo sapiens (Human), UniProt Q9NR97). Nature of the test: TLR8 inhibition reporter assay (HEK-Blue SEAP).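 Further: SEAP driven by IFN-β minimal promoter with five NF-κB and AP-1 sites, compounds tested 0.05 nM to 50 µM, 22 h incubation, inhibition relative to agonist plus DMSO wells.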 For orientation: Reporter assays use an easily measured gene product as a stand-in for the process of interest.
The target of test [2] is human TLR7 (Homo sapiens (Human), UniProt Q9NYK1). Nature of the test: TLR7 inhibition reporter assay (HEK-Blue SEAP). To be noted: HEK-Blue cells overexpressing human TLR7, gardiquimod 7.5 μM stimulation. It counts as cell-based.
The target of test [3] is human TLR9 (Homo sapiens (Human), UniProt Q9NR96). The test is described as follows: TLR9 inhibition reporter assay (HEK-Blue SEAP).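 Further: SEAP driven by IFN-β minimal promoter carrying five NF-κB and AP-1 sites, 22 h at 37 °C, compounds 0.05 nM–50 µM, inhibition scaled between agonist-plus-DMSO and reference-inhibitor wells.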
[4] abbreviates: read-out: TLR8 IC50; HEK-Blue cells overexpressing human TLR8; R848 15.9 μM stimulation; SEAP reporter.
Where [5] appears, read: read-out: TLR9 IC50; HEK-Blue cells overexpressing human TLR9; ODN2006 5 nM stimulation; SEAP reporter.
[6] abbreviates: read-out: TLR8 IC50; HEK-Blue cells overexpressing human TLR8, R848 15.9 μM stimulation, SEAP reporter.
The mark [7] stands for this setting: read-out: TLR9 IC50; HEK-Blue cells overexpressing human TLR9, ODN2006 5 nM stimulation, SEAP reporter.

Each structure is given as a SMILES string. Like-named read-outs stand apart in the source and are kept apart here.

Sequence of human TLR8 (Q9NR97 27-1041): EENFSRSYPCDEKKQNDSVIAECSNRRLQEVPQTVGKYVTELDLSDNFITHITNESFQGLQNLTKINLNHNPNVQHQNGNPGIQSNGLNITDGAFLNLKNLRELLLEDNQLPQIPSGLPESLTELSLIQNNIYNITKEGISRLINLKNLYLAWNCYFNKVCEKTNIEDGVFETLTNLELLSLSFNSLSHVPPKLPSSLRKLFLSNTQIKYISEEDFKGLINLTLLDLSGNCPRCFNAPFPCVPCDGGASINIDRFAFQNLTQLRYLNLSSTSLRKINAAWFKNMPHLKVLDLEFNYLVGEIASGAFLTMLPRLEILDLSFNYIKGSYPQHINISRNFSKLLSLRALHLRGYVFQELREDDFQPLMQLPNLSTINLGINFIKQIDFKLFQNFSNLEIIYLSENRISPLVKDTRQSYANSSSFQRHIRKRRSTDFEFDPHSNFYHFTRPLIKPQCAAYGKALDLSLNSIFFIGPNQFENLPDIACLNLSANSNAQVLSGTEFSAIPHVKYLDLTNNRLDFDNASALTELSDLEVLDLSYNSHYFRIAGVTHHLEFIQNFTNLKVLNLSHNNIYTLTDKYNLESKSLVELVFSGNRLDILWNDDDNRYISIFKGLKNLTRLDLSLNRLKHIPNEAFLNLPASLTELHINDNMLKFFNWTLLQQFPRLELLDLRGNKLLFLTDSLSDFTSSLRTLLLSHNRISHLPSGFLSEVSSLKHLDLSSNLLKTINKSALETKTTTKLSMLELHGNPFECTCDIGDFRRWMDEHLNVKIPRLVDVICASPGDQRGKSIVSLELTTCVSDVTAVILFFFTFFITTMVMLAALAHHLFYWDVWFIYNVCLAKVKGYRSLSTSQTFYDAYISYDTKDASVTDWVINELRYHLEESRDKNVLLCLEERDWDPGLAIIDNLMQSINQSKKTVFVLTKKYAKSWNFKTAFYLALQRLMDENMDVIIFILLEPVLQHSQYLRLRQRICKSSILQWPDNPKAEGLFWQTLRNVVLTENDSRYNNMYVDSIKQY
Sequence of human TLR7 (Q9NYK1 27-1049): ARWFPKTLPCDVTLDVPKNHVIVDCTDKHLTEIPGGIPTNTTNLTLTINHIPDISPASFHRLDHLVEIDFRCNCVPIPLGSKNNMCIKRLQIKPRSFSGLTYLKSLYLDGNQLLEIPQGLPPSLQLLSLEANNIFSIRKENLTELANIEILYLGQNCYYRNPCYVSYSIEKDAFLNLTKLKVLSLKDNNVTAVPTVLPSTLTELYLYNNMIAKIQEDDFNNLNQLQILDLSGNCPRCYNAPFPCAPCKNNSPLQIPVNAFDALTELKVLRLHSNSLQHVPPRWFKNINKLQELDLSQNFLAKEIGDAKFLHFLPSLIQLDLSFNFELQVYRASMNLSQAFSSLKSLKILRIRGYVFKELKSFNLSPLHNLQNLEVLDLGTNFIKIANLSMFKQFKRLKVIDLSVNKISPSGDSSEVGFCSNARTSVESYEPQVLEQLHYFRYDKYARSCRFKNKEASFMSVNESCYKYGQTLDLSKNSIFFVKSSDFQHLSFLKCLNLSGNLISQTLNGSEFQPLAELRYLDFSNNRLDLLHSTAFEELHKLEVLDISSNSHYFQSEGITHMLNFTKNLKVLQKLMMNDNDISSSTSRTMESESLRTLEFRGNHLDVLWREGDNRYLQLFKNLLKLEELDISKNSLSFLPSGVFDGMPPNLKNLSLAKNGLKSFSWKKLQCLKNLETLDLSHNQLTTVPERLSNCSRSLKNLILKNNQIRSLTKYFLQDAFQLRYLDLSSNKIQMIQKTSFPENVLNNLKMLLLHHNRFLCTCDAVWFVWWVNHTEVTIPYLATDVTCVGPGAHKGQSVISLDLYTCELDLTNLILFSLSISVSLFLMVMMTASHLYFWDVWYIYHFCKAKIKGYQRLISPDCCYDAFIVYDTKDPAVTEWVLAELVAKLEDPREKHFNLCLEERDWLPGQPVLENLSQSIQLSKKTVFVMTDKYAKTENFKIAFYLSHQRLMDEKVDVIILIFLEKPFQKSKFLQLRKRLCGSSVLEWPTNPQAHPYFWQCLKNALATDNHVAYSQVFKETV
Sequence of human TLR9 (Q9NR96 26-1032): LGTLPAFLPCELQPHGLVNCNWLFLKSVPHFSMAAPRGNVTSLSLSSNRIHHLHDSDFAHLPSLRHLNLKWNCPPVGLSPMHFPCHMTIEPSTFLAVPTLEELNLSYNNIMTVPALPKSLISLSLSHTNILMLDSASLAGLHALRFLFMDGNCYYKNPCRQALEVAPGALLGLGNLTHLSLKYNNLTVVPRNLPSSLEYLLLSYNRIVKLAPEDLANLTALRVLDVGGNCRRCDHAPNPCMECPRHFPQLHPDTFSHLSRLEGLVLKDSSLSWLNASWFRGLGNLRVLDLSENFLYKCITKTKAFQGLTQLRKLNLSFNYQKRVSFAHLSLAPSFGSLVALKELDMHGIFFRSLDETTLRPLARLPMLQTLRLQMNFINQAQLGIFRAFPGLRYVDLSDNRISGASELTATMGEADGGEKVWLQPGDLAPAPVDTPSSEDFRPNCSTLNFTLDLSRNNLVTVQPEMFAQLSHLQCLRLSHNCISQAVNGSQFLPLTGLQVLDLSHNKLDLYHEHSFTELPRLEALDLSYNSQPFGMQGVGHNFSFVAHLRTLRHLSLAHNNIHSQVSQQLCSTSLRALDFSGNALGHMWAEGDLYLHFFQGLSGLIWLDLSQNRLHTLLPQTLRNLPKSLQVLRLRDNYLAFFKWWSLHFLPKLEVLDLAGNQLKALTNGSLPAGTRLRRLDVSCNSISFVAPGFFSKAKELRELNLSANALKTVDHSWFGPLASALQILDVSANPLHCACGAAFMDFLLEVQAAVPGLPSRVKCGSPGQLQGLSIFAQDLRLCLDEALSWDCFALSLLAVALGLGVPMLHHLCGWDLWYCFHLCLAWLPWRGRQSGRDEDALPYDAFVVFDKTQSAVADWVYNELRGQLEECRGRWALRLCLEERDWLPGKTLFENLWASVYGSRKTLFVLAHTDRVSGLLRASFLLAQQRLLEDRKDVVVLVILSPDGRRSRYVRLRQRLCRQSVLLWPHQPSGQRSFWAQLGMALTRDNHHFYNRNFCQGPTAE

`Cc1c(-c2[nH]c3cnc(N4CCN(CC#N)C[C@H]4C)c(F)c3c2C(C)C)cn2ncnc2c1C` [Example 467]: the figures for the concentration for half-maximal inhibition (IC50) in test [1] (setting [4]), in test [2] and in test [3] (setting [5]) were 1.4 nM, 2.8 nM and 17100 nM, respectively.

Consider `Cc1c(-c2[nH]c3cnc(N4CCN(CC(F)(F)F)C[C@H]4C)c(F)c3c2C(C)C)cn2ncnc2c1C` [Example 468], for which the results for the IC50 in test [1] (setting [4]), in test [2] and in test [3] (setting [5]) were 50 nM, 43 nM and above 50000 nM, respectively.

For `Cc1c(-c2[nH]c3cnc(N4CCN(CC(=O)N5CCOCC5)C[C@H]4C)c(F)c3c2C(C)C)cn2ncnc2c1C` [Example 469], the IC50 was determined as 3.5 nM in test [1] (setting [4]), 13 nM in test [2] and 47900 nM in test [3] (setting [5]).

As to `Cc1c(-c2[nH]c3cnc(N4CCN(C(=O)CN(C)C)C[C@H]4C)c(F)c3c2C(C)C)cn2ncnc2c1C` [Example 470], the results for the IC50 in test [1] (setting [4]), in test [2] and in test [3] (setting [5]) were 0.49 nM, 4.9 nM and 15500 nM, respectively.

Consider `Cc1c(-c2[nH]c3cnc(N4CCN(C(=O)CN5CCOCC5)C[C@H]4C)c(F)c3c2C(C)C)cn2ncnc2c1C` [Example 471], for which the IC50 was 2.7 nM in test [1] (setting [4]), 27 nM in test [2] and above 50000 nM in test [3] (setting [5]).

With `COCCN1CCN(c2ncc3[nH]c(-c4cn5ncnc5c(C)c4C)c(C(C)C)c3c2F)[C@H](C)C1` [Example 472], the IC50 in test [1] (setting [4]) stood at 0.92 nM; in test [2], 5.3 nM; in test [3] (setting [5]) it was 46600 nM.

Take `COc1cc(-c2[nH]c3cnc(N4CCNC[C@H]4C)c(F)c3c2C(C)C)cn2ncnc12` [compound 354]: the IC50 in test [1] (setting [6]) was 9.9 nM; in test [2], 1.6 nM; in test [3] (setting [7]) it was 3430 nM.

For the molecule `COc1cc(-c2[nH]c3cnc(N4CCN(C(=O)CN(C)C)CC4)c(F)c3c2C(C)C)cn2ncnc12` [compound 368], the figures for the IC50 in test [1] (setting [6]), in test [2] and in test [3] (setting [7]) were 2.3 nM, 1.3 nM and 5890 nM, respectively.
